Molecular target: T1, human Nav1.6 (hNav1.6) (Homo sapiens, UniProt Q9UQD0)
T1 construct: expressed in transfected cells; host or cells: HEK-293
Experiment: Modulation of late sodium current (INaL), PatchXpress high throughput electrophysiology
Type: cell-based
Settings: HEK293; 1 μM compound; HEK-293 cells expressing recombinant hNav1.6; late current evoked by 300 nM ATX-II
Procedure: Functional characterization of exemplary compounds to modulate INaL expressed by the Nav1.6 voltage-gated sodium channel was accomplished using the PatchXpress' high throughput electrophysiology platform (Molecular Devices, Sunnyvale, Calif.). HEK-293 cells expressing recombinant, human Nav1.6 (hNav1.6) were grown in DMEM/high-glucose Dulbecco's modified, 10% FBS, 2 mM sodium pyruvate, 10 mM HEPES and 400 μg/mL G418. Cells were grown to 50%-80% confluency prior to harvesting. […] The onboard liquid handling facility of the PatchXpress was used for dispensing cells and applying test compounds. Nav late currents were evoked by the application of 300 nM ATX-II. […] INaL amplitude and stability were determined by analyzing the mean current amplitude over the final 20 ms of thetest pulse. […] Percent steady-state inhibition of INaL was calculated as: [(INaL_compound)/(INaL_control)]*100, where INaL_compound and INaL_control represent INaL recorded in the presence or absence of compound, respectively.

T1 sequence (Q9UQD0 whole entry): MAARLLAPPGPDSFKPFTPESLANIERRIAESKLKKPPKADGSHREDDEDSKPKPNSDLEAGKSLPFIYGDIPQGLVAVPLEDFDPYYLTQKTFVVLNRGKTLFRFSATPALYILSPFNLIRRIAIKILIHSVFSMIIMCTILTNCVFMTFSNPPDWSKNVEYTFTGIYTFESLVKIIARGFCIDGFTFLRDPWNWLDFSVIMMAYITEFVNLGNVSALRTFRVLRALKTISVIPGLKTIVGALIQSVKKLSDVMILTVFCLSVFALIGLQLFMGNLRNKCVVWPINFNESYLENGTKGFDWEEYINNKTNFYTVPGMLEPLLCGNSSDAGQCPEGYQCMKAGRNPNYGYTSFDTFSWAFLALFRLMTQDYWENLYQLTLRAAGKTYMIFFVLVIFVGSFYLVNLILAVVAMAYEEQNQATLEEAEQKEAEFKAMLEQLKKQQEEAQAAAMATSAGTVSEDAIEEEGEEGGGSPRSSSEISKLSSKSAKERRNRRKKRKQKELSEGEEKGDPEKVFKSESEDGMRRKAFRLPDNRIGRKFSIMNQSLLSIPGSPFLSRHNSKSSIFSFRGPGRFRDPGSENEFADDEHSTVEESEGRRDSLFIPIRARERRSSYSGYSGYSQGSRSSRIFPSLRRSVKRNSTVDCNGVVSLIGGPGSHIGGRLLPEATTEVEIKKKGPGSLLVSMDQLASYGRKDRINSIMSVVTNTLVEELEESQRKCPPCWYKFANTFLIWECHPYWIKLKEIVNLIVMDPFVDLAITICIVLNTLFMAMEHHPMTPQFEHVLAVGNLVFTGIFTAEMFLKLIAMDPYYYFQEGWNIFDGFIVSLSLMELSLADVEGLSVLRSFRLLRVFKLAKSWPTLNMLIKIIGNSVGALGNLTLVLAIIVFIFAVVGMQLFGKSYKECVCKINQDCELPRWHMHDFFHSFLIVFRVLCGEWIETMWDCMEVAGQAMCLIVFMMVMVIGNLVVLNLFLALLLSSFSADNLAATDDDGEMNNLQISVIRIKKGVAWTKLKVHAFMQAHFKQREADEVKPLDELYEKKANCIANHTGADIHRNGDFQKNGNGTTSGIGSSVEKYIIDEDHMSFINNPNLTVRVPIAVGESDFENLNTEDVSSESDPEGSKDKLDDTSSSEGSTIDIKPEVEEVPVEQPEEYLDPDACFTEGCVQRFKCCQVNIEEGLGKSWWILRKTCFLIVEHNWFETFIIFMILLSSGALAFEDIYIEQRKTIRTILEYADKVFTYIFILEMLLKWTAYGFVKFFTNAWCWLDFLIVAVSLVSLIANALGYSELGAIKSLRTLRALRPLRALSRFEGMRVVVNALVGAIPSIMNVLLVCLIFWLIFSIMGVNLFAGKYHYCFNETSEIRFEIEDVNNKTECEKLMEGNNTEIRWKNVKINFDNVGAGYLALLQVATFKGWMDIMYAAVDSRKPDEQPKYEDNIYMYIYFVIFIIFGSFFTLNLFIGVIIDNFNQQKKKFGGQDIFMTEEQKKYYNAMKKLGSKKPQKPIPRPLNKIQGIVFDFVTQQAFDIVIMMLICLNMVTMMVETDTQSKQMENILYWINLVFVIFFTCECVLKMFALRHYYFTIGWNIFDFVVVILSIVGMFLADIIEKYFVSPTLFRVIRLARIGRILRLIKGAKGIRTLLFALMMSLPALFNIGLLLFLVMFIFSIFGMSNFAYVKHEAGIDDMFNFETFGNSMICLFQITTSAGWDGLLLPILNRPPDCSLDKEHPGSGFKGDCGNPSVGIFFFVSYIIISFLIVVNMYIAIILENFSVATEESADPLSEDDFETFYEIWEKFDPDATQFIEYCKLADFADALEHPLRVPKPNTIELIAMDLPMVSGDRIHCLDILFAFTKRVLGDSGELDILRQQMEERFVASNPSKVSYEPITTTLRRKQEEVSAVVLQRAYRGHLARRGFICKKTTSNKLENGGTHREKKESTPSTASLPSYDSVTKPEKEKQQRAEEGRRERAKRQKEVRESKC

Row | Compound | inhibition at 1 µM [%]
1 | Cc1cn2cc(-c3ccc(OC(F)(F)F)cc3)cnc2n1 [Compound 32, 2-methyl-6-[4-(trifluoromethoxy)phenyl]imidazo[1,2-a]pyrimidine] | < 50
2 | COCc1cc(OC(F)(F)F)ccc1-c1cnc2ncc(C(F)(F)F)n2c1 [Compound 30, 6-[2-(methoxymethyl)-4-(trifluoromethoxy)phenyl]-3-(trifluoromethyl)imidazo[1,2-a]pyrimidine] | < 50
3 | FC(F)(F)Oc1ccc(-c2ccc3ncc(C(F)(F)F)n3n2)cc1 [Compound 19] | < 50
4 | FC(F)(F)Oc1ccc(-c2cc3c(C(F)(F)C(F)(F)F)cnn3cn2)cc1 [Compound 25b, 3-(1,1,2,2,2-pentafluoroethyl)-5-[4-(trifluoromethoxy)phenyl]pyrazolo[1,5-c]pyrimidine] | > 50
5 | COC(C)(C)c1ccc(-c2ccn3ncc(C(F)(F)F)c3c2)cc1 [Compound 44, 5-[4-(1-methoxy-1-methyl-ethyl)phenyl]-3-(trifluoromethyl)pyrazolo[1,5-a]pyridine] | < 50
6 | Cc1cc(OC(F)(F)F)ccc1-c1cnn2nccc2c1 [Compound 26, 5-[2-methyl-4-(trifluoromethoxy)phenyl]pyrazolo[1,5-b]pyridazine] | < 50
7 | FC(F)(F)COc1ccc(-c2ccc3ncc(C(F)(F)F)n3c2)cn1 [Compound 3] | > 50
8 | FC(F)(F)Oc1ccc(-c2ccc3nccn3n2)cc1 [Compound 18] | < 50
9 | FC(F)(F)Oc1ccc(-c2cnn3nccc3c2)cc1 [Compound 28, 5-[4-(trifluoromethoxy)phenyl]pyrazolo[1,5-b]pyridazine] | < 50
10 | FC(F)(F)COc1ccc(-c2ccn3nccc3c2)cn1 [Compound 15, 5-[6-(2,2,2-trifluoroethoxy)-3-pyridyl]pyrazolo[1,5-a]pyridine] | > 50
11 | COC(C)(C)c1ccc(-c2ccc3ncc(C(F)(F)F)n3c2)cc1 [Compound 4] | > 50
12 | COc1cc(OC(F)(F)F)ccc1-c1ccn2ncc(C(F)(F)F)c2c1 [Compound 42, 5-[2-methoxy-4-(trifluoromethoxy)phenyl]-3-(trifluoromethyl)pyrazolo[1,5-a]pyridine] | > 50
13 | COc1cc(OC(F)(F)F)ccc1-c1ccn2nccc2c1 [Compound 14, 5-[2-methoxy-4-(trifluoromethoxy)phenyl]pyrazolo[1,5-a]pyridine] | > 50
14 | Cc1cc(OC(F)(F)F)ccc1-c1cnn2ncc(C(=O)N(C)C)c2c1 [Compound 50, N,N-dimethyl-5-[2-methyl-4-(trifluoromethoxy)phenyl]pyrazolo [1,5-b]pyridazine-3-carboxamide] | < 50
15 | COc1cc(OC(F)(F)F)ccc1-c1ccc2ncc(C(F)(F)F)n2c1 [Compound 2] | > 50
16 | FC(F)(F)Oc1ccc(-c2cnc3nccn3c2)cc1 [Compound 16] | < 50
17 | FC(F)(F)Oc1ccc(-c2cc3c(C(F)(F)F)cnn3cn2)cc1 [Compound 25a, 5-[4-(trifluoromethoxy)phenyl]-3-(trifluoromethyl)pyrazolo[1,5-c]pyrimidine] | > 50
18 | FC(F)(F)Oc1ccc(-c2cnn3ncc(C(F)(F)F)c3c2)cc1 [Compound 29, 5-[4-(trifluoromethoxy)phenyl]-3-(trifluoromethyl)pyrazolo[1,5-b]pyridazine] | > 50

Row | Compound | inhibition at 1 µM [%]
19 | FC(F)(F)Oc1ccc(-c2cc3ccnn3cn2)cc1 [Compound 24, 5-[4-(trifluoromethoxy)phenyl]pyrazolo[1,5-c]pyrimidine] | < 50
20 | N#CC1(c2ccc(-c3ccn4ncc(C(F)(F)F)c4c3)cc2)CC1 [Compound 43, 1-[4-[3-(trifluoromethyl)pyrazolo[1,5-a]pyridin-5-yl]phenyl]cyclopropanecarbonitrile] | < 50
21 | FC(F)(F)COc1ccc(-c2ccn3ncc(C(F)(F)F)c3c2)cn1 [Compound 45, 5-[6-(2,2,2-trifluoroethoxy)-3-pyridyl]-3-(trifluoromethyl)pyrazolo[1,5-a]pyridine] | > 50
22 | N#CC1(c2ccc(-c3cn4c(C(F)(F)F)cnc4cn3)cc2)CC1 [Compound 35, 1-[4-[3-(trifluoromethyl)imidazo[1,2-a]pyrazin-6-yl]phenyl]cyclopropanecarbonitrile] | < 50
23 | FC(F)(F)c1ccc(-c2cn3c(C(F)(F)F)cnc3cn2)cc1 [Compound 34, 3-(trifluoromethyl)-6-[4-(trifluoromethyl)phenyl]imidazo[1,2-a]pyrazine] | > 50
24 | FC(F)(F)Oc1ccc(-c2ccc3nccn3c2)cc1 [Compound 6] | < 50
25 | Cc1cc(OC(F)(F)F)ccc1-c1cnn2ncc(C(F)(F)F)c2c1 [Compound 27, 5-[2-methyl-4-(trifluoromethoxy)phenyl]-3-(trifluoromethyl)pyrazolo[1,5-b]pyridazine] | < 50
26 | FC(F)(F)Oc1ccc(-c2cn3c(C(F)(F)F)cnc3cn2)cc1 [Compound 21] | > 50
27 | Cc1cc(OC(F)(F)F)ccc1-c1cc2ccnn2cn1 [Compound 22, 5-[2-methyl-4-(trifluoromethoxy)phenyl]pyrazolo[1,5-c]pyrimidine] | < 50
28 | COCc1cc(OC(F)(F)F)ccc1-c1cn2c(C(F)(F)F)cnc2cn1 [Compound 41, 6-[2-(methoxymethyl)-4-(trifluoromethoxy)phenyl]-3-(trifluoromethyl)imidazo[1,2-a]pyrazine] | > 50
29 | FC(F)(F)Oc1ccc(-c2cnc3ncc(C(F)(F)F)n3c2)cc1 [Compound 17] | < 50
30 | Cc1nc2ncc(-c3ccc(OC(F)(F)F)cc3)cn2c1C(F)(F)F [Compound 33, 2-methyl-6-[4-(trifluoromethoxy)phenyl]-3-(trifluoromethyl)imidazo[1,2-a]pyrimidine] | < 50
31 | Cc1cc(OC(F)(F)F)ccc1-c1cc2c(C(F)(F)F)cnn2cn1 [Compound 23, 5-[2-methyl-4-(trifluoromethoxy)phenyl]-3-(trifluoromethyl)pyrazolo[1,5-c]pyrimidine] | < 50
32 | FC(F)(F)Oc1ccc(-c2cn3ccnc3cn2)cc1 [Compound 20] | < 50
33 | N#CC1(c2ccc(-c3ccc4ncc(C(F)(F)F)n4c3)cc2)CC1 [Compound 5] | < 50
34 | Cc1cc(OC(F)(F)F)ccc1-c1cnc2ncc(C(F)(F)F)n2c1 [Compound 31, 6-[2-methyl-4-(trifluoromethoxy)phenyl]-3-(trifluoromethyl)imidazo[1,2-a]pyrimidine] | < 50
35 | Fc1cc(-c2cn3c(C(F)(F)F)cnc3cn2)cnc1OCC(F)(F)F [Compound 36, 6-[5-fluoro-6-(2,2,2-trifluoroethoxy)-3-pyridyl]-3-(trifluoromethyl)imidazo[1,2-a]pyrazine] | > 50
